Test results: ChEMBL document CHEMBL3872249, “Computer design, synthesis, and bioactivity analyses of drugs like fingolimod used in the treatment of multiple sclerosis” (Bioorg Med Chem, 2017)
Calls of active or inactive are those of the source. The calls are words filed in the database; no cut-off is given here.

Legend:
SH-SY5Y [1] = test: Effect on ICAM1 mRNA expression in human SH-SY5Y cells at EC10 by qPCR method relative to beta-actin; type: functional
[2] = Cytotoxicity against human SH-SY5Y cells measured after 24 hrs by crystal-violet staining based assay; type: toxicity, cell-based
SH-SY5Y [3] = test: Effect on TNFRSF1A mRNA expression in human SH-SY5Y cells at EC10 by qPCR method relative to beta-actin; type: functional
SH-SY5Y [4] = test: Effect on S1PR1 mRNA expression in human SH-SY5Y cells at EC10 by qPCR method relative to beta-actin; type: functional
SH-SY5Y [5] = test: Effect on CCL2 mRNA expression in human SH-SY5Y cells at EC10 by qPCR method relative to beta-actin; type: functional
[6] = target: Sphingosine 1-phosphate receptor 1 (Homo sapiens) (UniProt P21453); test: Agonist activity at sphingosine-1-phosphate receptor (unknown origin) expressed in HEK293 cells assessed as increase in cAMP level at EC10 after 18 hrs by CRE-responsive renilla luciferase reporter gene assay; type: functional, cell-based
[7] = target: Sphingosine 1-phosphate receptor 1 (Homo sapiens) (UniProt P21453); test: Agonist activity at sphingosine-1-phosphate receptor in human SH-SY5Y cells assessed as increase in cAMP level at EC10 by direct immunoassay; type: functional, cell-based
SK-N-SH [8] = test: Effect on TNFRSF1A mRNA expression in human SK-N-SH cells at EC10 by qPCR method relative to beta-actin; type: functional
SK-N-SH [9] = test: Effect on ADORA2A mRNA expression in human SK-N-SH cells at EC10 by qPCR method relative to beta-actin; type: functional
U-118-MG [10] = test: Effect on ADCY5 mRNA expression in human U118MG cells at EC10 by qPCR method relative to beta-actin; type: functional
[11] = target: Sphingosine 1-phosphate receptor 1 (Homo sapiens) (UniProt P21453); test: Agonist activity at sphingosine-1-phosphate receptor in human U118MG cells assessed as increase in cAMP level at EC10 by direct immunoassay; type: functional, cell-based; conditions: U-118-MG
SK-N-SH [12] = test: Effect on PMP22 mRNA expression in human SK-N-SH cells at EC10 by qPCR method relative to beta-actin; type: functional
SH-SY5Y [13] = test: Effect on MMP9 mRNA expression in human SH-SY5Y cells at EC10 by qPCR method relative to beta-actin; type: functional
SK-N-SH [14] = test: Effect on ADCY5 mRNA expression in human SK-N-SH cells at EC10 by qPCR method relative to beta-actin; type: functional
SH-SY5Y [15] = test: Effect on GNAS mRNA expression in human SH-SY5Y cells at EC10 by qPCR method relative to beta-actin; type: functional
SK-N-SH [16] = test: Effect on IL10 mRNA expression in human SK-N-SH cells at EC10 by qPCR method relative to beta-actin; type: functional
U-118-MG [17] = test: Effect on IL10 mRNA expression in human U118MG cells at EC10 by qPCR method relative to beta-actin; type: functional
SH-SY5Y [18] = test: Effect on DRD2 mRNA expression in human SH-SY5Y cells at EC10 by qPCR method relative to beta-actin; type: functional
U-118-MG [19] = test: Effect on PMP22 mRNA expression in human U118MG cells at EC10 by qPCR method relative to beta-actin; type: functional
SH-SY5Y [20] = test: Effect on IL6 mRNA expression in human SH-SY5Y cells at EC10 by qPCR method relative to beta-actin; type: functional
SK-N-SH [21] = test: Effect on CCL2 mRNA expression in human SK-N-SH cells at EC10 by qPCR method relative to beta-actin; type: functional
SK-N-SH [22] = test: Effect on TNF mRNA expression in human SK-N-SH cells at EC10 by qPCR method relative to beta-actin; type: functional
SK-N-SH [23] = test: Effect on IL6 mRNA expression in human SK-N-SH cells at EC10 by qPCR method relative to beta-actin; type: functional
U-118-MG [24] = test: Effect on TNF mRNA expression in human U118MG cells at EC10 by qPCR method relative to beta-actin; type: functional
SK-N-SH [25] = test: Effect on GNAS mRNA expression in human SK-N-SH cells at EC10 by qPCR method relative to beta-actin; type: functional
U-118-MG [26] = test: Effect on ADORA2A mRNA expression in human U118MG cells at EC10 by qPCR method relative to beta-actin; type: functional
SH-SY5Y [27] = test: Effect on VCAM1 mRNA expression in human SH-SY5Y cells at EC10 by qPCR method relative to beta-actin; type: functional
SH-SY5Y [28] = test: Effect on NFKB1 mRNA expression in human SH-SY5Y cells at EC10 by qPCR method relative to beta-actin; type: functional
SH-SY5Y [29] = test: Effect on PMP22 mRNA expression in human SH-SY5Y cells at EC10 by qPCR method relative to beta-actin; type: functional
SK-N-SH [30] = test: Effect on CXCL10 mRNA expression in human SK-N-SH cells at EC10 by qPCR method relative to beta-actin; type: functional
SH-SY5Y [31] = test: Effect on CXCL10 mRNA expression in human SH-SY5Y cells at EC10 by qPCR method relative to beta-actin; type: functional
U-118-MG [32] = test: Effect on ICAM1 mRNA expression in human U118MG cells at EC10 by qPCR method relative to beta-actin; type: functional
SK-N-SH [33] = test: Effect on EPHA1 mRNA expression in human SK-N-SH cells at EC10 by qPCR method relative to beta-actin; type: functional
SH-SY5Y [34] = test: Effect on TNF mRNA expression in human SH-SY5Y cells at EC10 by qPCR method relative to beta-actin; type: functional
SH-SY5Y [35] = test: Effect on ADCY5 mRNA expression in human SH-SY5Y cells at EC10 by qPCR method relative to beta-actin; type: functional
U-118-MG [36] = test: Effect on VCAM1 mRNA expression in human U118MG cells at EC10 by qPCR method relative to beta-actin; type: functional
U-118-MG [37] = test: Effect on NFKB1 mRNA expression in human U118MG cells at EC10 by qPCR method relative to beta-actin; type: functional
[38] = Cytotoxicity against human SK-N-SH cells measured after 24 hrs by crystal-violet staining based assay; type: toxicity, cell-based
[39] = target: Sphingosine 1-phosphate receptor 1 (Homo sapiens) (UniProt P21453); test: Agonist activity at sphingosine-1-phosphate receptor human SK-N-SH cells assessed as increase in cAMP level at EC10 by direct immunoassay; type: functional, cell-based
SH-SY5Y [40] = test: Effect on ADORA2A mRNA expression in human SH-SY5Y cells at EC10 by qPCR method relative to beta-actin; type: functional
U-118-MG [41] = test: Effect on GNAS mRNA expression in human U118MG cells at EC10 by qPCR method relative to beta-actin; type: functional
SK-N-SH [42] = test: Effect on S1PR1 mRNA expression in human SK-N-SH cells at EC10 by qPCR method relative to beta-actin; type: functional
SH-SY5Y [43] = test: Effect on IL10 mRNA expression in human SH-SY5Y cells at EC10 by qPCR method relative to beta-actin; type: functional

Chain of Sphingosine 1-phosphate receptor 1 (Homo sapiens) (P21453 whole entry): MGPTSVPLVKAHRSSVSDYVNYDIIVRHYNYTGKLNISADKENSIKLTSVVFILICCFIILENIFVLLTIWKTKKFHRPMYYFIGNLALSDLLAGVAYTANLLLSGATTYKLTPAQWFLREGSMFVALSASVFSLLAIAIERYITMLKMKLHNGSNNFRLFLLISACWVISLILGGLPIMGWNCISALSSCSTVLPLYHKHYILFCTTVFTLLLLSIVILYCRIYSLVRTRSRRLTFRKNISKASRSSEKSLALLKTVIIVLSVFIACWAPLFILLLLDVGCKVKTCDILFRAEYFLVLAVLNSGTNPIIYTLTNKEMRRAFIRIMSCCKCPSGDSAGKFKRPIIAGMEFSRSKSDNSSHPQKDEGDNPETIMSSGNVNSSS

CCCCCCCCn1nnnc1-c1ccc(C(O)CC(N)(CO)CO)cc1.Cl (stereo unspecified)
fold change (FC) (SH-SY5Y [1]): -3.763
EC10 [2]: 300 nM
fold change (FC) (SH-SY5Y [3]): -3.2986
fold change (FC) (SH-SY5Y [4]): -5.0215
fold change (FC) (SH-SY5Y [5]): -4.1393
Activity [6]: Active
Activity [7]: Active
fold change (FC) (SK-N-SH [8]): -4.1053
fold change (FC) (SK-N-SH [9]): -4.3394
fold change (FC) (U-118-MG [10]): -6.08
Activity [11]: Active
fold change (FC) (SK-N-SH [12]): -5.2416
fold change (FC) (SH-SY5Y [13]): -3.9092
fold change (FC) (SK-N-SH [14]): -4.6187
fold change (FC) (SH-SY5Y [15]): -4.6852
fold change (FC) (SK-N-SH [16]): -4.6028
fold change (FC) (U-118-MG [17]): -2.6793
fold change (FC) (SH-SY5Y [18]): -3.4837
fold change (FC) (U-118-MG [19]): -5.4523
fold change (FC) (SH-SY5Y [20]): -3.0565
fold change (FC) (SK-N-SH [21]): -4.9933
fold change (FC) (SK-N-SH [22]): -4.9674
fold change (FC) (SK-N-SH [23]): -4.899
fold change (FC) (U-118-MG [24]): -6.5178
fold change (FC) (SK-N-SH [25]): -4.4537
fold change (FC) (U-118-MG [26]): -4.4431
fold change (FC) (SH-SY5Y [27]): -4.0191
fold change (FC) (SH-SY5Y [28]): -3.5415
fold change (FC) (SH-SY5Y [29]): -3.0092
fold change (FC) (SK-N-SH [30]): -6.1156
fold change (FC) (SH-SY5Y [31]): -3.1588
fold change (FC) (U-118-MG [32]): -5.4736
fold change (FC) (SK-N-SH [33]): -3.7516
fold change (FC) (SH-SY5Y [34]): -3.511
fold change (FC) (SH-SY5Y [35]): -4.3188
fold change (FC) (U-118-MG [36]): -5.7757
fold change (FC) (U-118-MG [37]): -4.6974
EC10 [38]: 270 nM
Activity [39]: Active
fold change (FC) (SH-SY5Y [40]): -4.6048
fold change (FC) (U-118-MG [41]): -3.2119
fold change (FC) (SK-N-SH [42]): -4.2281
fold change (FC) (SH-SY5Y [43]): -3.3797

CCCCCCCCc1ccc(CCC(N)(CO)CO)cc1 [FINGOLIMOD]
fold change (FC) (SH-SY5Y [1]): -6.0839
EC10 [2]: 540 nM
fold change (FC) (SH-SY5Y [3]): -10.091
fold change (FC) (SH-SY5Y [4]): -8.6788
fold change (FC) (SH-SY5Y [5]): -7.8218
Activity [6]: Active
Activity [7]: Active
fold change (FC) (SK-N-SH [8]): -3.8155
fold change (FC) (SK-N-SH [9]): -8.1222
fold change (FC) (U-118-MG [10]): -5.5057
Activity [11]: Active
fold change (FC) (SK-N-SH [12]): -3.3914
fold change (FC) (SH-SY5Y [13]): -6.6923
fold change (FC) (SK-N-SH [14]): -5.1851
fold change (FC) (SH-SY5Y [15]): -3.605
fold change (FC) (SK-N-SH [16]): -4.2704
fold change (FC) (U-118-MG [17]): -2.5151
fold change (FC) (SH-SY5Y [18]): -9.8151
fold change (FC) (U-118-MG [19]): -5.8716
fold change (FC) (SH-SY5Y [20]): -6.498
fold change (FC) (SK-N-SH [21]): -11.3481
fold change (FC) (SK-N-SH [22]): -15.2356
fold change (FC) (SK-N-SH [23]): -4.6974
fold change (FC) (U-118-MG [24]): -5.8716
fold change (FC) (SK-N-SH [25]): -6.1024
fold change (FC) (U-118-MG [26]): -4.9966
fold change (FC) (SH-SY5Y [27]): -4.9933
fold change (FC) (SH-SY5Y [28]): -3.9931
fold change (FC) (SH-SY5Y [29]): -5.1694
fold change (FC) (SK-N-SH [30]): -5.2302
fold change (FC) (SH-SY5Y [31]): -3.1821
fold change (FC) (U-118-MG [32]): -6.8152
fold change (FC) (SK-N-SH [33]): -3.6983
fold change (FC) (SH-SY5Y [34]): -15.9446
fold change (FC) (SH-SY5Y [35]): -5.5117
fold change (FC) (U-118-MG [36]): -4.7445
fold change (FC) (U-118-MG [37]): -3.1465
EC10 [38]: 550 nM
Activity [39]: Active
fold change (FC) (SH-SY5Y [40]): -4.4924
fold change (FC) (U-118-MG [41]): -2.939
fold change (FC) (SK-N-SH [42]): -5.8741
fold change (FC) (SH-SY5Y [43]): -4.2501
